Assays:
[1] = molecular target: T1, Histone-arginine methyltransferase CARM1 (Homo sapiens, UniProt Q86X55)
T1 sequence (Q86X55 whole entry): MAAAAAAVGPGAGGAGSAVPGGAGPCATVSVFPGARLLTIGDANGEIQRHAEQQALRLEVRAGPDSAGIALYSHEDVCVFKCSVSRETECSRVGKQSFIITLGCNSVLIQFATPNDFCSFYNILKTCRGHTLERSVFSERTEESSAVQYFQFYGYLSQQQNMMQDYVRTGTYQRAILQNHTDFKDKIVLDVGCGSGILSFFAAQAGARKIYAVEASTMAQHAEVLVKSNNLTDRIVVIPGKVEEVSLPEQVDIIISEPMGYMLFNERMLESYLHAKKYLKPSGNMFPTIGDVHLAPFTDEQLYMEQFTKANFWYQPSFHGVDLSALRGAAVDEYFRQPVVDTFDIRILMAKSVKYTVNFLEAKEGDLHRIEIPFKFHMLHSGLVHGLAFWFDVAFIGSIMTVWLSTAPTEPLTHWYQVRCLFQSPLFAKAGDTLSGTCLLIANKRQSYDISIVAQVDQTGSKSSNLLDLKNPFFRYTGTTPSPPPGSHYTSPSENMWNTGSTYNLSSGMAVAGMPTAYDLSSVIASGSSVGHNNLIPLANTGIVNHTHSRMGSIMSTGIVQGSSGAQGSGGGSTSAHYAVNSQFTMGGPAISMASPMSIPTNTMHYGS
Description: Inhibition of CARM1 (unknown origin)

[2] = molecular target: Protein arginine N-methyltransferase 3 (Homo sapiens, UniProt O60678); assay: Inhibition of PRMT3 (unknown origin)
Sequence of Protein arginine N-methyltransferase 3 (O60678 whole entry): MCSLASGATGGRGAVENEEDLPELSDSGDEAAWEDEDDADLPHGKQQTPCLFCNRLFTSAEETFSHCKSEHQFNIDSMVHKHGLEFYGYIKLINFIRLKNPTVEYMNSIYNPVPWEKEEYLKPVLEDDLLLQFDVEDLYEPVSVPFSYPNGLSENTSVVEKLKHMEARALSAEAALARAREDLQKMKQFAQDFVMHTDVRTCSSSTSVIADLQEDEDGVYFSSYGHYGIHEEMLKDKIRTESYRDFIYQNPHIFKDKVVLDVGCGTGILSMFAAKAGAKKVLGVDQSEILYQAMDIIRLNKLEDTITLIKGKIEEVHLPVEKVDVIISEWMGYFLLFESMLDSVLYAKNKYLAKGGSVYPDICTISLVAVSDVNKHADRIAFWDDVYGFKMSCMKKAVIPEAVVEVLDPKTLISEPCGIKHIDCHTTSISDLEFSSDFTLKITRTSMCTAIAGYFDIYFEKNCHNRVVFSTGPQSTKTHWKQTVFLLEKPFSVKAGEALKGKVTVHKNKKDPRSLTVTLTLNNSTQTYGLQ

[3] = molecular target: Protein arginine N-methyltransferase 6 (Homo sapiens, UniProt Q96LA8); assay: Inhibition of PRMT6 (unknown origin)
Sequence of Protein arginine N-methyltransferase 6 (Q96LA8 whole entry): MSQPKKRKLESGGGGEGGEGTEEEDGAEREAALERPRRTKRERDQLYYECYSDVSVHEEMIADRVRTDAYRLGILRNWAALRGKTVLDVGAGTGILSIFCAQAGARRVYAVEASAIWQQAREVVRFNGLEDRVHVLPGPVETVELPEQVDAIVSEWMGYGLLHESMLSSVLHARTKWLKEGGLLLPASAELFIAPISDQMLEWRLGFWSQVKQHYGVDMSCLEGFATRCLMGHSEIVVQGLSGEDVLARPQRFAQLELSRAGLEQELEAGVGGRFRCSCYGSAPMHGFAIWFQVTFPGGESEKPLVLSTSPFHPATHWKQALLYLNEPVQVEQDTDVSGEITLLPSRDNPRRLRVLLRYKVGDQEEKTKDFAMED

[4] = molecular target: Protein arginine N-methyltransferase 8 (Homo sapiens, UniProt Q9NR22); assay: Inhibition of PRMT8 (unknown origin)
Sequence of Protein arginine N-methyltransferase 8 (Q9NR22 whole entry): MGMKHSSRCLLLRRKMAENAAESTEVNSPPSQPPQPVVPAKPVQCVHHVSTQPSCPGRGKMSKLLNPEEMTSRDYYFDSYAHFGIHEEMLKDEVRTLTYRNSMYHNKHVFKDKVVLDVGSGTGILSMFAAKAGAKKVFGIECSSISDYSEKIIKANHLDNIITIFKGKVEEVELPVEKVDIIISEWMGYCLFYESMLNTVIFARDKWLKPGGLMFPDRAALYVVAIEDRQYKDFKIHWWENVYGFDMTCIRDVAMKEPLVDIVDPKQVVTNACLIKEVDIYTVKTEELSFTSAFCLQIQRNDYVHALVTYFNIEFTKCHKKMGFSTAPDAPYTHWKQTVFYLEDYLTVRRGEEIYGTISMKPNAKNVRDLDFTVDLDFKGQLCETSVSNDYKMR

[5] = molecular target: Protein arginine N-methyltransferase 5 (Homo sapiens, UniProt O14744); assay: Inhibition of PRMT5 (unknown origin)
Sequence of Protein arginine N-methyltransferase 5 (O14744 whole entry): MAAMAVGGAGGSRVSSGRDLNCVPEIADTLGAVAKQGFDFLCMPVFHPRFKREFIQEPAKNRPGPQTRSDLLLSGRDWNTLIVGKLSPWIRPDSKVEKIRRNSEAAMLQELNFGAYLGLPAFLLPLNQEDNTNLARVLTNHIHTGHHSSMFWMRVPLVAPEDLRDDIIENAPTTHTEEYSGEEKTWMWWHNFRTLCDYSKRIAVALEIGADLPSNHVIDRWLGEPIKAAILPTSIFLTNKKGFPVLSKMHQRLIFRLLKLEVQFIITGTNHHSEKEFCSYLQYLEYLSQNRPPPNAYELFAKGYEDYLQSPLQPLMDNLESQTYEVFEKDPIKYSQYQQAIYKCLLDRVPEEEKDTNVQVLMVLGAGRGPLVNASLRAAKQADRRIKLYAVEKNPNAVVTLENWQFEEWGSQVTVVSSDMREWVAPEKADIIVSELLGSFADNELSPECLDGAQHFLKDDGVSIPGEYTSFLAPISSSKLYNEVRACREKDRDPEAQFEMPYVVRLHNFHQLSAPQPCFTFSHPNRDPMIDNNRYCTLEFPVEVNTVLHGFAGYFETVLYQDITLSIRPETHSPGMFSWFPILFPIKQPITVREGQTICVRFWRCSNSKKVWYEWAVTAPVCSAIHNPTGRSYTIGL

[6] = molecular target: T2, Protein arginine N-methyltransferase 7 (Homo sapiens, UniProt Q9NVM4); assay: Inhibition of PRMT7 (unknown origin)
T2 sequence (Q9NVM4 whole entry): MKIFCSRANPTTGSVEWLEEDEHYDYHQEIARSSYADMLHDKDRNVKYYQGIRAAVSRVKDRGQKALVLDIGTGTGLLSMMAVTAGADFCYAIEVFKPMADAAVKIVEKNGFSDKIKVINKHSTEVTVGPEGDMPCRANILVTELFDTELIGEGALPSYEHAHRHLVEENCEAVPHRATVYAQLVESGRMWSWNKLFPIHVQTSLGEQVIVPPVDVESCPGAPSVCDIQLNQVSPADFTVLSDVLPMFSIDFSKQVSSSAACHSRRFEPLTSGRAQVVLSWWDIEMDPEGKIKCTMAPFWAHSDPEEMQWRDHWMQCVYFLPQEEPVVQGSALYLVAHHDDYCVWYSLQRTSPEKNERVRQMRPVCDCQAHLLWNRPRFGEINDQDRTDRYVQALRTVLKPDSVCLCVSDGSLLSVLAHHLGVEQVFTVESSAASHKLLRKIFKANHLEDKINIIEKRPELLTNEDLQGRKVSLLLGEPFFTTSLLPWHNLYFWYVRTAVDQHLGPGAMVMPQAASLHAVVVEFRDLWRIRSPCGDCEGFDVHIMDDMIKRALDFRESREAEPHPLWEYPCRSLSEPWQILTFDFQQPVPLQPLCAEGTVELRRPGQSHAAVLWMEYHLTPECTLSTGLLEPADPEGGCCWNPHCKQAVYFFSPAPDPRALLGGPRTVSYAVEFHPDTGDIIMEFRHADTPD

CNCC(O)CN1CCc2c(cccc2OCc2ccc(-c3nccs3)cc2)C1 (stereo unspecified)
IC50 [1]: 21 nM

CNC[C@H](O)CN(C)Cc1ccccc1OCc1ccc(-c2nccs2)c(Cl)c1
IC50 [2]: 942 nM | IC50 [3]: 64 nM | IC50 [4]: 73 nM | IC50 [5]: > 100 µM | IC50 [6]: > 100 µM
